Assay results as given in patent US8357659B2, “Method of treating pain or itching with APETx2 peptide toxin” (priority 2008, dated 2013).

Key:
[1] = tested on: cutaneous pain induced by moderate acidification; experiment: Nociceptive behaviour in rats after subcutaneous injection of moderately acidic solutions; type: in vivo, rat
Method: Adult (7-8 weeks' old) male Wistar rats (Charles River, France) were placed in plastic cages with a nyctohemeral period of 12 h (with light between 8 a.m. and 8 p.m.) and with free access to food and water. The rats were left to acclimatize for at least one week before the experiments. For the behavioural experiments, the rats were placed in a transparent observation chamber where they were acclimatized for 20-30 minutes. They were subsequently immobilised while 20 μl of saline solution (0.9% or 2% of NaCl+20 mM of HEPES, […] or 60 nM of PcTx1 toxin), was administered subcutaneously to the dorsal side of the right hind paw using a 30G needle connected to a 100 μl Hamilton syringe. The nociceptive behaviour (i.e. the number of hind leg quiverings) was recorded over a 5-minute period, starting immediately after the injection ([ref. 59]).

[2] = tested on: thermal hyperalgesia induced by CFA; experiment: Inflammation-induced (CFA) thermal hyperalgesia in rats, hotplate at 50° C.; type: in vivo, rat
Method: Sensitivity to heat of adult male Wistar rats (Charles River, France) was tested by measuring the time taken by the animal to retract one of its hind paws when placed on a hotplate at 50° C. (Bioseb, France), before and after induction of inflammation by subcutaneous injection of a solution of Freund's complete adjuvant (CFA, Sigma-Aldrich, France). The rats were acclimatised to the experimentation room for at least 30 minutes and each measurement was performed in duplicate. An initial measurement was performed before induction of inflammation. The rats were subsequently anaesthetised (isofluorane) while 150 μl of CFA diluted 1:1 with a saline solution (0.9% NaCl) containing either toxins (PcTx1 or APETx2, 120 nM and 20 μM, respectively) or the vehicle was injected (26G needle mounted on a 1 ml syringe) subcutaneously into the plantar side of one of the hind paws. The time taken by the animal to lift the injected hind paw was subsequently measured at 50° C., 2, 4 and 24 hours after the injection of CFA.
(§1) ASIC3 channel-specific iRNA (no. 1121; CTACACGCTATGCCAAGGA, SEQ ID NO: 1) and its control (no. 1121S; GCTCACACTACGCAGAGAT, SEQ ID NO: 2) were designed in the laboratory and were synthesised by MWG Biotech Company (Germany). The ASIC3-specific iRNA was validated by quantification of the messenger RNA levels by quantitative RT-PCR for each ASIC channel and for the TRPV1 channel, following intrathecal injections into the lumbar region of the spinal cord of rats, at a rate of one injection per day for 3 consecutive days, before the animal was sacrificed. The same procedure was followed before induction of inflammation by CFA. Each injection was 10 μl in volume, containing 2 μg of iRNA mixed with the transfection agent i-Fect (Neuromics) at a ratio of 1 to 4.

[3] = tested on: ASIC type current of cutaneous neurons of the spinal ganglia; experiment: Whole cell patch clamp of native ASIC currents in cutaneous neurons of the spinal ganglia; type: cell-based, rat
Method: The neurons of the dorsal root ganglion (spinal ganglia or DRG) innervating the skin were labelled by subcutaneous injections of 5×1 μl of Dil fluorescent dye (5% DMSO, Molecular Probes) in the dorsal side of the rats' hind paws. The dye was injected two weeks before the rats were sacrificed in order to prepare a primary culture of dorsal root ganglion.
The lumbar dorsal root ganglia L3-L6 of Wistar rats (8-11 weeks) were dissected bilaterally and separated enzymatically with 0.1% collagenase. The cells were subsequently plated on 35 mm Petri dishes covered with collagen and cultured at 37° C. (95% air/5% CO2) in DMEM medium containing 5% of foetal calf serum. The electrophysiological experiments were performed 1 to 8 days after seeding.
(§2) The whole cell configuration of the patch clamp method was used ([ref. 48]) in order to measure the membrane currents (imposed voltage) or the membrane potentials (imposed current). The recordings were performed at ambient temperature using an RK-400 amplifier (Bio-Logic Science Instruments) with a 3 kHz low-pass filter (Krohn-Hite). The data were sampled at 10 kHz, digitised using a Digidata 1322A A-D/D-A converter (Axon Instruments) and recorded on a hard disk using pClamp software (version 9.2.0.11, Axon Instruments). The recording probes (1-4 MOhms) contained (in mM): 135 KCl, 2.5 Na2-ATP, 2 MgCl2, 2.1 CaCl2, 5 EGTA, 10 HEPES (pH 7.25 with KOH). Various different buffers and drugs of interest were added to the transfected cells considered individually using an internally developed microinfusion system controlled by microelectrovalves (Sirai, Italy) allowing rapid changes of solution. The control bath solution contained (in mM): 145 NaCl, 5 KCl, 2 MgCl2, 2 CaCl2, 10 HEPES (pH 7.4 with NaOH). The MES medium was used instead of the HEPES medium in order to buffer the solution at a pH ranging from 6 to 5, and the ASIC currents were induced by rapid changes of a control solution at pH 7.4 to an acid test solution using the microinfusion system. For the experiments conducted on the DRG neurons, glucose (10 mM) was added to the control bath solution. Hypertonic conditions were obtained by adding mannitol or sucrose to the external bath solutions, as indicated in the text.

[4] = target: T1, ASIC3 (rat clone) in F-11 cells (Rattus norvegicus, UniProt O35240); experiment: Whole cell patch clamp of recombinant ASIC3 in transfected F-11 cells; type: cell-based
T1 construct: expressed in transfected cells; host or cells: F-11 cells, vector pCI-ASIC3r co-transfected with pIRES2-EGFP
T1 sequence (O35240 1-533): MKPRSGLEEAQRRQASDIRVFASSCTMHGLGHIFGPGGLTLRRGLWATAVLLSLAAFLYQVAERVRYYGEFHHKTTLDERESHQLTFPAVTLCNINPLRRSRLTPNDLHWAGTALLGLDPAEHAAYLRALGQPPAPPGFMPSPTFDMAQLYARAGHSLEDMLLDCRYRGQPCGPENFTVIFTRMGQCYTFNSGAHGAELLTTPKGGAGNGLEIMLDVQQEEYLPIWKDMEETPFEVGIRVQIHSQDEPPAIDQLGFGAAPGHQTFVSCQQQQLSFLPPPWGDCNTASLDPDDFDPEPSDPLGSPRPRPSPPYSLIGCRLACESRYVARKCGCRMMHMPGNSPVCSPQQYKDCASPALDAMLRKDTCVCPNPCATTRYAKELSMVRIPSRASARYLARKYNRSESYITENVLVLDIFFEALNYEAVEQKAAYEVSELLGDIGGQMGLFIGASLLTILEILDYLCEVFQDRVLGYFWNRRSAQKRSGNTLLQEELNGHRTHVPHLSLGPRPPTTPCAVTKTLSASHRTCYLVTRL
Method: (§3) F-11 cells (refs. 44, 45, 46, 47]) were cultured in 5% of CO2 at a density of 50,000 cells per 35 mm Petri dish. The culture medium contained HAM F-12 medium (Invitrogen) supplemented with 15% foetal bovine serum (ICN Biomedicals), 1×HAT (sodium hypoxanthine, aminopterine and thymidine), 200 μg/ml of allo-4-hydroxy-L-proline (Sigma-Aldrich) and 1% antibiotics. One day after seeding, the cells were transfected with ASIC1a or ASIC3 DNAc (rat clones) using Lipofectamine™ (Invitrogen) according to the manufacturer's instructions using the vectors pCI-ASIC1ar+pIRES2-EGFP (ratio 1:2) or pCI-ASIC3r+pIRES2-EGFP (ratio 1:10) ([ref. 36]), quoted above). For the experiments concerning the human ASIC3 clone (refer to experiments on the effects of the APETx2 toxin on the human form of the ASIC3 channel), the cells were transfected with the DNAc of human ASIC3 using the transfection agent JetPEI (Polypus Transfection) according to the manufacturer's instructions with the aid of the vector pASIC3h-IRES-EGFP. The cells were used for the patch clamp experiments (an electrophysiological method for recording ionic currents travelling through cell membranes) 2 to 4 days after transfection.
as §2

[5] = target: T2, ASIC1a (rat clone) in F-11 cells (Rattus norvegicus, UniProt P55926); experiment: Whole cell patch clamp of recombinant ASIC1a in transfected F-11 cells; type: cell-based
T2 construct: expressed in transfected cells; host or cells: F-11 cells, vector pCI-ASIC1ar co-transfected with pIRES2-EGFP
T2 sequence (P55926 1-526): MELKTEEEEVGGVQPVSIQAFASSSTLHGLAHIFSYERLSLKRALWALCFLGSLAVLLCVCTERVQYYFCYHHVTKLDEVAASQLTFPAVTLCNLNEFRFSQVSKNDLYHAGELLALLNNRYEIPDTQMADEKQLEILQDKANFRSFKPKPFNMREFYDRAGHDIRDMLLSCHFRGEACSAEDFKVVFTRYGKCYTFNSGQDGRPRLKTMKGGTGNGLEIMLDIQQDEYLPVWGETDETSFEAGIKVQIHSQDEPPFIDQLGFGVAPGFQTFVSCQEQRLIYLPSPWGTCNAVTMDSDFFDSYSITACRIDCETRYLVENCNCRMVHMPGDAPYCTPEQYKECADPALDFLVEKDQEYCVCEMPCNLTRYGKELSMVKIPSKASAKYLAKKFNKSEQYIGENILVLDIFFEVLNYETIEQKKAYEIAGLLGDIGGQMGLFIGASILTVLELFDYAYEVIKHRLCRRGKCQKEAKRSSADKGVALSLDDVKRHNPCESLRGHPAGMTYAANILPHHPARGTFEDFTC
Method: as §3
The whole cell configuration of the patch clamp method was used ([ref. 48]) in order to measure the membrane currents (imposed voltage) or the membrane potentials (imposed current). The recordings were performed at ambient temperature using an RK-400 amplifier (Bio-Logic Science Instruments) with a 3 kHz low-pass filter (Krohn-Hite). The data were sampled at 10 kHz, digitised using a Digidata 1322A A-D/D-A converter (Axon Instruments) and recorded on a hard disk using pClamp software (version 9.2.0.11, Axon Instruments). The recording probes (1-4 MOhms) contained (in mM): 135 KCl, 2.5 Na2-ATP, 2 MgCl2, 2.1 CaCl2, 5 EGTA, 10 HEPES (pH 7.25 with KOH). Various different buffers and drugs of interest were added to the transfected cells considered individually using an internally developed microinfusion system controlled by microelectrovalves (Sirai, Italy) allowing rapid changes of solution. […]

ASIC3 messenger RNA = experiment: Quantitative RT-PCR of channel messenger RNA levels in spinal ganglia after intrathecal iRNA; type: in vivo, rat; details: 2 μg per injection, one per day for 3 days, other ASIC and TRPV1 channels not reduced
Text: as §1

Compound: PcTx1: animal peptide toxin, selective inhibitor of the homomer channels ASIC1a (EDCIPKWKGCVNRHGDCCEGLECWKRRRSFEVCVPKTPKT)
- behaviour in response to acid pain with inflammatory signals ([1]; pH 6.9 + 2% NaCl + AA, 10 μM APETx2 or 60 nM PcTx1 in injected solution, FIG. 5A): devoid of any significant effect
- development of thermal hyperalgesia ([2]; toxin concomitantly injected with CFA (APETx2 20 μM, PcTx1 120 nM), four hours after CFA): devoid of any significant effect
- inhibition by the toxin of the ASIC type current induced by pH 6.6 ([3]; in 4.7% (2/43) of neurons, ASIC1a homomer current): > 90%
- inhibition by the toxin of the ASIC type current induced by pH 6.6 ([3]; in 23.3% (10/43) of neurons, ASIC3 type currents): < 10%

Compound: OC[C@@H](O)[C@@H](O)[C@H](O)[C@H](O)CO [mannitol]
- increase of the ASIC3 current by hyperosmolarity ([4]; 600 mosmol.kg^−1 with mannitol, activated by pH 7.2, n=20): 148±20%

Compound: CCCCC/C=C\C/C=C\C/C=C\C/C=C\CCCC(=O)O [arachidonic acid]
- increase of the ASIC1a current ([5]; pH 6.6, n=2): 21±15%
- increase of the ASIC1a current ([5]; pH 7.0, n=5, P=0.06): 183±54%
- effect on ASIC1a current ([5]; pH 7.2): does not have any effect
- quivering score ([1]; co-injected 2% NaCl (~600 mosmol.kg^−1) and 10 mM AA at pH 6.9, subcutaneous, hind paw, 5-minute period, n=25, versus 11.1±2.54 at pH 6.9 alone): 20.42±2.53
- non-inactivating ASIC3 window current ([4]; FIG. 4D): markedly increased
- increase of the ASIC3 current ([4]; activated by pH 6.6, n=7, P=0.45): 40±22%
- increase of the ASIC3 current ([4]; activated by pH 7.0, n=9): 493±84%
- increase of the ASIC3 current ([4]; activated by pH 7.2, n=23): 547±103%
- excitability of the cutaneous neurons (triggering of the action potential) ([3]; FIG. 2C): increased excitability
- increase of the ASIC current induced by native pH 7.0 ([3]; pH 7.0, n=6, P=0.06): 172±65%

Compound: ASIC3 channel-specific iRNA: interfering RNA directed against ASIC3 messenger RNA, CTACACGCTATGCCAAGGA, SEQ ID NO: 1 (listed as DNA, chemistry not given here)
- expression of the ASIC3 channels in the sensory neurons (ASIC3 messenger RNA): marked and exclusive reduction
- development of inflammatory thermal hyperalgesia ([2]; intrathecal iRNA during the 3 days preceding CFA, versus random sequence control iRNA): do not develop any inflammatory thermal hyperalgesia
